One test relates to BaF-BO3 cells. In words: Growth of the parental cell line BaF-BO3 not expressing TPOR. The settings on record: FIG. 3. Type of test: cell-based.
As for “TPO: Thrombopoietin, polypeptide cytokine composed of 332 amino acids; Human TPO (hTPO) purchased from R&D Systems”, the “proliferation of parental BaF cells bearing no TPOR” value was “dose not have any ability to support proliferation”.

In another test the target is T1, human TPO receptor (hTPOR) (Homo sapiens, UniProt P40238).
T1 construct: expressed in transfected cells; host or cells: BaF-BO3 (murine IL-3 dependent pro-B cell line), giving BaF/hTPOR
T1 sequence (P40238 26-635): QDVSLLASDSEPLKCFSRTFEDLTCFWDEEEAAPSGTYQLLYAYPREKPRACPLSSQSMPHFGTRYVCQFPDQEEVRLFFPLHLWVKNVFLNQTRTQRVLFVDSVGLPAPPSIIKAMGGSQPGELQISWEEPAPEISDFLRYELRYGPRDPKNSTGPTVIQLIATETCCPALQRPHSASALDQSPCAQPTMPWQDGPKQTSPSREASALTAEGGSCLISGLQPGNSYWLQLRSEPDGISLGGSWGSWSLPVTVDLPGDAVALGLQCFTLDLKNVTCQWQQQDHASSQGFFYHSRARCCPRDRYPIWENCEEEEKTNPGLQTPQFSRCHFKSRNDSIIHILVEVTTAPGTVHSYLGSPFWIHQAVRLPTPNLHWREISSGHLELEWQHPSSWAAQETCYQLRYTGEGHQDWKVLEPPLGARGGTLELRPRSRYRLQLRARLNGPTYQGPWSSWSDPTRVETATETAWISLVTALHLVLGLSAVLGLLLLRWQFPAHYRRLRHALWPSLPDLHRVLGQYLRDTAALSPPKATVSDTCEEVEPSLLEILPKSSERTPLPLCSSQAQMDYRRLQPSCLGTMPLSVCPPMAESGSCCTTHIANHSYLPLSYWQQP
In words: Proliferation of TPO dependent BaF/hTPOR cells (thrombopoietic activity, WST-1). Type of test: cell-based. Particulars: 20 hours + 4 hours WST-1, absorbance at 450 nm, ED50 = half concentration of the concentration showing the maximum thrombopoietic activity. An excerpt:
The TPO dependent BaF/hTPOR cell line which was established by introducing human TPO receptor (hTPOR) into BaF-BO3 cells according to Collins et al (J. Cell. Physiol., 137:293-298 (1988)) was used to test the thrombopoietic activity of the present compound (B-17). The DNA sequences and encoded peptide sequences for human hTPOR have been described by Vigon et al (Proc. Natl. Acad. Sci. USA, 89:5640-5644 (1992)). […] BAF/hTPOR cells were maintained in RPMI medium and WEHI-3B conditioned medium as a source of murine interleukin-3 (IL-3). These cells were washed and resuspended in RPMI medium without a source of murine IL-3 and seeded into each well of 96-well microtiter plates at a density of […] cells per well in the absence or presence of various concentration of hTPO or the present compound. After incubation at 37° C. for 20 hours in the 5% CO2 incubator, 10% WST-1 reagent (Takara Biomedicals, Japan) was added to each wells and the cells were further incubated for 4 hours. Table 24 exemplifies the ED50 for tested compounds of the present invention, wherein the ED50 is the half concentration of the concentration showing the maximum thrombopoietic activity
For orientation: Formazan colour is commonly taken as a measure of viable cells.
For orientation: EC50 means the concentration needed to bring the measured effect to its halfway point. As to `O=C1NC(=S)S/C1=C\c1ccc(C(=O)Nc2nc(-c3ccc(Cl)c(Cl)c3)cs2)cc1` [Compound A-1], the EC50 turned out to be 0.012 µM. Same read-out and setting: with `O=C1NC(=S)SC1=Cc1ccc(C(=O)Nc2nc(-c3ccccc3)cs2)cc1` [Compound A-2] the figure was 0.058 µM. For `O=C1NC(=S)SC1=Cc1ccc(C(=O)Nc2nc(-c3ccc(F)cc3)cs2)cc1` [Compound A-3], the concentration for a half-maximal effect (EC50) amounted to 0.017 µM. On the same count and under the same terms, next, `O=C1NC(=S)SC1=Cc1ccc(C(=O)Nc2nc(-c3ccc(Br)cc3)cs2)cc1` [Compound A-4]: 0.036 µM; `O=C1NC(=S)SC1=Cc1ccc(C(=O)Nc2nc(-c3ccc(Cl)cc3)cs2)cc1` [Compound A-5]: 0.022 µM; `Cc1ccc(-c2csc(NC(=O)c3ccc(C=C4SC(=S)NC4=O)cc3)n2)cc1` [Compound A-6]: 0.045 µM. `O=C1NC(=S)SC1=Cc1ccc(C(=O)Nc2nc(-c3ccc(-c4ccccc4)cc3)cs2)cc1` [Compound A-7]: the EC50 came to 0.06 µM. Still for that read-out and setting: with `CC(C)(C)c1ccc(-c2csc(NC(=O)c3ccc(/C=C4\SC(=S)NC4=O)cc3)n2)cc1` [Compound A-11] the figure was 0.031 µM. Still for that read-out and setting: with `COC(=O)c1ccc(-c2csc(NC(=O)c3ccc(/C=C4\SC(=S)NC4=O)cc3)n2)cc1` [Compound A-12] the figure was 0.011 µM. Still for that read-out and setting: with `O=C1NC(=S)S/C1=C\c1ccc(C(=O)Nc2nc(-c3ccc([N+](=O)[O-])cc3)cs2)cc1` [Compound A-14] the figure was 0.015 µM; with `O=C1NC(=S)S/C1=C\c1ccc(C(=O)Nc2nc(-c3ccc(Cl)s3)cs2)cc1` [Compound A-15], 0.026 µM; with `O=C1NC(=S)S/C1=C\c1ccc(C(=O)Nc2nc(-c3cccs3)cs2)cc1` [Compound A-16], 0.049 µM. For `O=C1NC(=S)S/C1=C\c1ccc(C(=O)Nc2nc(-c3ccc(F)c(F)c3)cs2)cc1` [Compound A-20], the EC50 turned out to be 0.029 µM.

Regarding `O=C1NC(=S)S/C1=C\c1ccc(C(=O)Nc2nc(-c3ccc(Br)s3)cs2)cc1` [Compound A-21], the EC50 stood at 0.041 µM.

`CC(C)OC(=O)c1ccc(-c2csc(NC(=O)c3ccc(/C=C4\SC(=S)NC4=O)cc3)n2)cc1` [Compound A-25]: the EC50 was found to be 0.099 µM. Same read-out and setting: with `CCCCOC(=O)c1ccc(-c2csc(NC(=O)c3ccc(/C=C4\SC(=S)NC4=O)cc3)n2)cc1` [Compound A-26] the figure was 0.072 µM; with `CCOC(=O)c1sc(NC(=O)c2ccc(/C=C3\SC(=S)NC3=O)cc2)nc1-c1ccccc1` [Compound A-32], 0.077 µM. The same measure, in the same setting: next, `Cc1sc(NC(=O)c2ccc(/C=C3\SC(=S)NC3=O)cc2)nc1-c1ccc(Cl)cc1` [Compound A-37]: 0.027 µM. Regarding `CCc1sc(NC(=O)c2ccc(/C=C3\SC(=S)NC3=O)cc2)nc1-c1ccccc1` [Compound A-38], the EC50 is 0.047 µM. Still for that read-out and setting: next, `COC(=O)c1sc(NC(=O)c2ccc(/C=C3\SC(=S)NC3=O)cc2)nc1-c1ccc(F)cc1` [Compound A-42]: 0.072 µM. As to `O=C1NC(=S)S/C1=C\c1ccc(C(=O)Nc2nc(-c3ccc(F)cc3)c(CCCl)s2)cc1` [Compound A-43], the EC50 was 0.073 µM.

Turning to `O=C1NC(=S)S/C1=C\c1ccc(C(=O)Nc2nc3c(s2)CCc2ccccc2-3)cc1` [Compound A-49], the EC50 is 0.035 µM. Still for that read-out and setting: with `O=C1NC(=S)S/C1=C\c1ccc(C(=O)Nc2nc3c(s2)CCCc2ccccc2-3)cc1` [Compound A-50] the figure was 0.026 µM; with `O=C1NC(=S)S/C1=C\c1ccc(C(=O)Nc2nc(-c3cccc(C(F)(F)F)c3)cs2)cc1` [Compound A-53], 0.023 µM. The same measure, in the same setting: with `Cc1cc(Br)sc1-c1csc(NC(=O)c2ccc(/C=C3\SC(=S)NC3=O)cc2)n1` [Compound A-56] the figure was 0.096 µM; with `O=C1NC(=S)S/C1=C\c1ccc(C(=O)Nc2nc3c(s2)CSc2ccccc2-3)cc1` [Compound A-59], 0.084 µM; with `O=C1NC(=S)S/C1=C\c1ccc(C(=O)Nc2nc(-c3ccc(C(F)(F)F)cc3)cs2)cc1` [Compound A-61], 0.069 µM. The same measure, in the same setting: with `O=C1NC(=S)S/C1=C\c1ccc(C(=O)Nc2nc(-c3cccc(OC(F)(F)F)c3)cs2)cc1` [Compound A-63] the figure was 0.016 µM; with `O=C1NC(=S)S/C1=C\c1ccc(C(=O)Nc2nc(-c3cccc(F)c3)cs2)cc1` [Compound A-64], 0.047 µM.

Regarding `O=C1NC(=S)S/C1=C\c1ccc(C(=O)Nc2nc(-c3ccccc3F)cs2)cc1` [Compound A-67], the EC50 came to 0.05 µM. On the same count and under the same terms, next, `O=C1NC(=S)S/C1=C\c1ccc(C(=O)Nc2nc(-c3ccc(F)cc3F)cs2)cc1` [Compound A-70]: 0.02 µM; `O=C1NC(=S)S/C1=C\c1ccc(C(=O)Nc2nc(-c3cc(F)c(F)cc3F)cs2)cc1` [Compound A-71]: 0.08 µM; `O=C1NC(=S)S/C1=C\c1ccc(C(=O)Nc2nc(-c3cccc(Br)c3)cs2)cc1` [Compound A-72]: 0.035 µM. Still for that read-out and setting: next, `O=C1NC(=S)S/C1=C\c1ccc(C(=O)Nc2nc(-c3ccc(I)cc3)cs2)cc1` [Compound A-73]: 0.07 µM. Same read-out and setting: with `O=C1NC(=O)C(=Cc2ccc(C(=O)Nc3nc(-c4ccccc4)cs3)cc2)S1` [Compound B-1] the figure was 0.071 µM; with `O=C1NC(=O)C(=Cc2ccc(C(=O)Nc3nc(-c4ccc(F)cc4)cs3)cc2)S1` [Compound B-2], 0.011 µM.

As for `O=C1NC(=O)C(=Cc2ccc(C(=O)Nc3nc(-c4ccc(Br)cc4)cs3)cc2)S1` [Compound B-3], the EC50 turned out to be 0.047 µM. Still for that read-out and setting: next, `O=C1NC(=O)C(=Cc2ccc(C(=O)Nc3nc(-c4ccc(Cl)cc4)cs3)cc2)S1` [Compound B-4]: 0.037 µM; `Cc1ccc(-c2csc(NC(=O)c3ccc(C=C4SC(=O)NC4=O)cc3)n2)cc1` [Compound B-5]: 0.047 µM; `O=C1NC(=O)C(=Cc2ccc(C(=O)Nc3nc(-c4ccc(-c5ccccc5)cc4)cs3)cc2)S1` [Compound B-6]: 0.072 µM. Still for that read-out and setting: with `O=C1NC(=O)/C(=C/c2ccc(C(=O)Nc3nc(-c4ccc(Cl)s4)cs3)cc2)S1` [Compound B-14] the figure was 0.023 µM; with `O=C1NC(=O)/C(=C/c2ccc(C(=O)Nc3nc(-c4cccs4)cs3)cc2)S1` [Compound B-15], 0.077 µM.

On to `O=C1NC(=O)/C(=C/c2ccc(C(=O)Nc3nc(-c4ccc(Cl)c(Cl)c4)cs3)cc2)S1` [Compound B-16], for which the EC50 was determined as 0.02 µM.

On to `O=C1NC(=O)/C(=C/c2ccc(C(=O)Nc3nc(-c4ccc(F)c(F)c4)cs3)cc2)S1` [Compound B-18], for which the EC50 worked out at 0.016 µM. On the same count and under the same terms, next, `O=C1NC(=O)/C(=C/c2ccc(C(=O)Nc3nc4c(s3)CCc3ccccc3-4)cc2)S1` [Compound B-21]: 0.084 µM; `O=C1NC(=O)C(=Cc2ccc(C(=O)Nc3nc(-c4ccc(Cl)c(Cl)c4)cs3)cc2)O1` [Compound C-1]: 0.068 µM. The same measure, in the same setting: next, `O=C1NC(=O)C(=Cc2ccc(C(=O)Nc3nc(-c4ccc(Cl)c(Cl)c4)cs3)s2)S1` [Compound E-2]: 0.062 µM.

The values are drawn from patent publication US7026334B1, “Thiazolidine compounds and pharmaceutical compositions exhibiting thrombopoietin receptor agonism” (Shionogi & Co., Ltd., priority 1999, dated 2006).
